Source: patent publication US20260306642A1, “STAT DEGRADERS AND USES THEREOF” (Recludix Pharma, Inc., priority 2023, published 2026)
Read-outs that look alike come from different tables or passages of the source.

How the values were obtained:
pSTAT6 = target: T1, pSTAT6 (Homo sapiens, UniProt P42226); test: MSD-pSTAT-PBMC Assay (pSTAT6, IL-4 stimulated); type: cell-based
T1 sequence (P42226 1-847): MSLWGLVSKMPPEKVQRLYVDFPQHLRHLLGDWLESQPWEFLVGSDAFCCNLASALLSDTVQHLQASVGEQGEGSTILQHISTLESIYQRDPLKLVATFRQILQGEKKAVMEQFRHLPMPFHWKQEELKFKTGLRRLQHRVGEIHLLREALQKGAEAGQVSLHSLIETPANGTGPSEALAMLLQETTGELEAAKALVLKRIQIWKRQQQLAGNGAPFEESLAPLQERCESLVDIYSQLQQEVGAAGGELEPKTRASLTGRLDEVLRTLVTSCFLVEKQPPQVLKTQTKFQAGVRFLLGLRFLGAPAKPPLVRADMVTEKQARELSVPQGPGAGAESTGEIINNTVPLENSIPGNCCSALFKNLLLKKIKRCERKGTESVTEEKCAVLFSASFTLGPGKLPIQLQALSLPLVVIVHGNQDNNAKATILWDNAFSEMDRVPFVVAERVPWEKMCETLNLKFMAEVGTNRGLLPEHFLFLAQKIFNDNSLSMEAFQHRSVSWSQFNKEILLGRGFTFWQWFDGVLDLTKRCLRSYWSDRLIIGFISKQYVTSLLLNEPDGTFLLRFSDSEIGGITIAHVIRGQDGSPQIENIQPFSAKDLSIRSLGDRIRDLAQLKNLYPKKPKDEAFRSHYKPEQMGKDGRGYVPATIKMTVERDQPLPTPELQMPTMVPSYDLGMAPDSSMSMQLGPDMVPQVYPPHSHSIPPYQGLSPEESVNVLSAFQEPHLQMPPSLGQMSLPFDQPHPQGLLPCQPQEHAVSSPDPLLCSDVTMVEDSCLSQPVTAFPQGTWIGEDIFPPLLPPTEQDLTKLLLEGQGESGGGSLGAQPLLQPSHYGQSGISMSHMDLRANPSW
From the text: Cryopreserved Peripheral Blood Mononuclear Cells (PBMC) are from AllCells. Recombinant Human IL-4 and IL-6 are from Peprotech. Mouse monoclonal anti-STAT3 antibody, rabbit monoclonal anti-pY705-STAT3 antibody, rabbit monoclonal Anti-pY641-STAT6 antibody, and lysis buffer are from Cell Signaling Technology (CST). Mouse monoclonal anti-STAT6 antibody is from BioLegend. Assay plates, blocker, and anti-rabbit secondary antibody are from Meso Scale Discovery (MSD).
Cryopreserved PBMCs were thawed out and allowed to recover overnight in IMDM+10% heat-inactivated FBS prior to plating 50,000 (STAT3) or 25,000 (STAT6) cells per well in 96-well U-bottom tissue culture plates. Cells were treated with compound for 3 hrs, then stimulated with 10 ng/mL IL-6 (STAT3) or 1 ng/mL IL-4 (STAT6) for 10 min. Cells were then spun down and washed with ice-cold PBS prior to lysing the cell pellet with 1× lysis buffer (CST) with 1× HALT protease and phosphatase inhibitor cocktail (Thermo). Lysates were transferred to and incubated overnight at 4° C. with shaking in QuickPlex 96-well high bind assay plates (MSD) pre-coated overnight with 30 μL per well of […] mouse monoclonal anti-STAT3 antibody (STAT3) or 2 μg/mL mouse monoclonal anti-STAT6 antibody (STAT6) in 1× PBS, and pre-blocked for 1 hour with 3% Blocker-A (MSD). Captured protein in the assay plates were then washed and probed with 25 μL per well of […] rabbit monoclonal anti-pY705-STAT3 antibody (STAT3) or […] rabbit monoclonal Anti-pY641-STAT6 antibody (STAT6) in 1% Blocker-A for 1 hour at room temperature with shaking, then washed and probed with 25 ul per well of 1 ug/ml Sulfo-TAG Labeled Goat Anti-Rabbit Antibody (MSD) in 1% Blocker-A for 1 hour at room temperature with shaking. Assay plates were then washed and 150 μL of 1× Read Buffer-T (MSD) was added to each well prior to reading on an SQ120 MSD Plate Reader. Assay signal from each sample was subtracted by the signal from unstimulated control wells and normalized to DMSO control wells. IC50 values were calculated using Graph Pad Prism Dose-Response Nonlinear Regression with variable slope. For both pSTAT3 and pSTAT6 A=≤100 nM; B=>100-1000 nM; C=>1000-3000 nM; and D=>3 μM.

pSTAT3 = pSTAT3 (Homo sapiens, UniProt P40763); test: MSD-pSTAT-PBMC Assay (pSTAT3, IL-6 stimulated); type: cell-based; settings: compound 3 hrs, then 10 ng/mL IL-6 10 min, pY705-STAT3, read-out: pSTAT3 IC50
How it was run: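 Human PBMCs, recovered overnight, get compound for 3 hrs, then 10 min stimulation with 10 ng/mL IL-6 (pSTAT3; 50,000 cells) or 1 ng/mL IL-4 (pSTAT6; 25,000 cells). Lysates go to MSD sandwich immunoassay (pY705-STAT3 or pY641-STAT6 detection); signal minus unstimulated, normalized to DMSO, IC50 by variable-slope fit.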

STAT6 = target: T2, STAT6 (Homo sapiens, UniProt P42226); test: STAT6 Fluorescence Polarization (FP) Assay; type: binding
T2 construct: Recombinant STAT6 protein (STAT6(W123-T658))
T2 sequence (P42226 123-658): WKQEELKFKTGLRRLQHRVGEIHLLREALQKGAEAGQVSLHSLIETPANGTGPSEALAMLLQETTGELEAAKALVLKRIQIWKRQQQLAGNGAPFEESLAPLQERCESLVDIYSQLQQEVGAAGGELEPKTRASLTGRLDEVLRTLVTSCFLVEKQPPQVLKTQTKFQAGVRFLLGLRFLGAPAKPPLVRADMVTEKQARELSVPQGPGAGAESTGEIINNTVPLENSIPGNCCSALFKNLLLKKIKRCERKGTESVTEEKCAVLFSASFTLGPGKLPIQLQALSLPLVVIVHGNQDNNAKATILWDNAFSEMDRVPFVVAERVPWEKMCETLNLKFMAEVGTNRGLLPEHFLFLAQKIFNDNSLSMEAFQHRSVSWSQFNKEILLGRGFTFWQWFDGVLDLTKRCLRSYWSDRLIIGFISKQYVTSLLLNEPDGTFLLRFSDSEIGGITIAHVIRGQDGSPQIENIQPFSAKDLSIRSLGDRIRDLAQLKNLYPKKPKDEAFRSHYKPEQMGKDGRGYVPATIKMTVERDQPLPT
Description: An FP assay was developed to determine IC50 values for test substances. Recombinant STAT6 protein (STAT6(W123-T658)) at 250 nM was combined with a fluorescently labeled, phosphotyrosine peptide probe (5-FAM-ApYKPFQDLI-NH2) at 2 nM in FP buffer (10 mM HEPES pH 7.4, 50 mM NaCl, 1 mM EDTA, 0.05% Tween 20, 2 mM DTT). 50 μL of STAT6-probe mixture was added to serial diluted compounds in black, 96-well plates (Greiner BioOne 655076) to a final concentration of 1% DMSO. Reaction components were mixed, and FP was measured after 45-minute incubation at room temperature using a Tecan Spark multimode plate reader. FP signal (mP) was plotted against the log concentration of the test substances and IC50 values were calculated by nonlinear regression analysis using GraphPad Prism software. For STAT6 FP assay, A=≤300 nM; B=>300-3000 nM; C=>3-30 μM; and D=>30 μM.

STAT3 = target: T3, STAT3 (Homo sapiens, UniProt P40763); test: STAT3 Fluorescence Polarization (FP) Assay; type: binding
T3 construct: Recombinant STAT3 protein (STAT3(G127-I722))
Description: An FP assay was developed to determine IC50 values for test substances.
Recombinant STAT3 protein (STAT3(G127-I722)) at 25 nM was combined with a fluorescently labeled, phosphotyrosine peptide probe (5-FAM-GpYLPQTV-NH2) at 2 nM in FP buffer (10 mM HEPES pH 7.4, 50 mM NaCl, 1 mM EDTA, 0.05% Tween 20, 2 mM DTT). 50 μL of STAT3-probe mixture was added to serial diluted compounds in black, 96-well plates (Greiner BioOne 655076) to a final concentration of 1% DMSO. Reaction components were mixed, and FP was measured after 45-minute incubation at room temperature using a Tecan Spark multimode plate reader. FP signal (mP) was plotted against the log concentration of the test substances and IC50 values were calculated by nonlinear regression analysis using GraphPad Prism software. For STAT3 FP assay, A=≤100 nM; B=>100-1000 nM; C=>1-10 μM; and D=>10 μM.

[1] = compound 3 hrs, then 1 ng/mL IL-4 10 min, pY641-STAT6, read-out: pSTAT6 IC50

T3 sequence (P40763 127-722): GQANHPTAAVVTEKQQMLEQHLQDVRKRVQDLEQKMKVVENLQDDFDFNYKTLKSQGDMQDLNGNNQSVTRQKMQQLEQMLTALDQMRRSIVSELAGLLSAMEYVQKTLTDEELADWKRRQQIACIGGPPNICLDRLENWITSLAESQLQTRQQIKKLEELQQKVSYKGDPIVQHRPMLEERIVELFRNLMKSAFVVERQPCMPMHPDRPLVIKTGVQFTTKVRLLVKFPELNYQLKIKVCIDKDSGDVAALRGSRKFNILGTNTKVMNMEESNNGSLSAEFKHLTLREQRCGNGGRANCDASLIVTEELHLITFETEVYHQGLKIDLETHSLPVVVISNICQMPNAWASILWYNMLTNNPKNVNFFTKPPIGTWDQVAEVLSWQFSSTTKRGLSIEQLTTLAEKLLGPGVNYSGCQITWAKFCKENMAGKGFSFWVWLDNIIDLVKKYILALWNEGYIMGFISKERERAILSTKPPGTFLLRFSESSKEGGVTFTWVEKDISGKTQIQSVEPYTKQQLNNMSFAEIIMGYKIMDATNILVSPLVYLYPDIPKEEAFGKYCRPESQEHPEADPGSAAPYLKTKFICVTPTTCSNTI
Chain of pSTAT3 (P40763 whole entry): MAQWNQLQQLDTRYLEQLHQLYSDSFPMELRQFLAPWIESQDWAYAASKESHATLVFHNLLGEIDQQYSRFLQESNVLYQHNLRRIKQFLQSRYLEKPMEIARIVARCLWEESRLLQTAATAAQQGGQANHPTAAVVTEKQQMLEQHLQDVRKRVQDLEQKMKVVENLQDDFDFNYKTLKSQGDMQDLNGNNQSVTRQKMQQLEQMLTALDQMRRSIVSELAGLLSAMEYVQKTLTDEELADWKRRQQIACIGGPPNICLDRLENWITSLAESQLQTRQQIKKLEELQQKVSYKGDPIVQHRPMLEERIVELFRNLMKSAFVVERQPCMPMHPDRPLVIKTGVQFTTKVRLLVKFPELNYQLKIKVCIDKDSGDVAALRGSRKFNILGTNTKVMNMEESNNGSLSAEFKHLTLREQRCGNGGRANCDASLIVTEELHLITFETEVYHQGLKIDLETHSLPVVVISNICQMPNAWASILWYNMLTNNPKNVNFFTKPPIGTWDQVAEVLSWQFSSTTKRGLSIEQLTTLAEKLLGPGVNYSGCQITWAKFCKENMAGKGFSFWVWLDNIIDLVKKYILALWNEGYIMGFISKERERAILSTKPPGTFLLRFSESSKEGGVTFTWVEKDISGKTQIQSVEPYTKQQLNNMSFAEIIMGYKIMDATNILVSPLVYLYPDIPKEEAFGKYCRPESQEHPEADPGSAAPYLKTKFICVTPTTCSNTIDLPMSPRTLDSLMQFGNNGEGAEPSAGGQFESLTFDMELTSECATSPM

| Compound | IC50 (pSTAT6; [1]) [µM] | IC50 (pSTAT6; read-out: pSTAT6 IC50, compound 3 hrs, then 1 ng/mL IL-4 10 min, pY641-STAT6) [µM] | IC50 (pSTAT3) [µM] | IC50 (STAT6) [µM] | IC50 (STAT3) [µM] |
| --- | --- | --- | --- | --- | --- |
| CCCC(=O)SCCOP(=O)(OCCSC(=O)CCC)C(F)(F)c1ccc2sc(C(=O)N[C@H]3CCCC[C@H]4CC[C@@H](C(=O)N5C[C@@H](c6ccn(CCOCCOCCOc7cccc8c7CN(C7CCC(=O)NC7=O)C8=O)c(=O)c6)CC56CC6)N4C3=O)cc2c1 (stereo partly drawn) [Compound 26, S,S((((2-(((3S,6S,10aS)-3-((6R)-6-(1-(2-(2-(2-((2-(2,6-dioxopiperidin-3-yl)-1-oxoisoindolin-4-yl)oxy)ethoxy)ethoxy)ethyl)-2-oxo-1,2-dihydropyridin-4-yl)-4-azaspiro[2.4]heptane-4-carbonyl)-5-oxodecahydropyrrolo[1,2-a]azocin-6-yl)carbamoyl)benzo[b]thiophen-5-yl)difluoromethyl)phosphoryl)bis(oxy))bis(ethane-2,1-diyl)) dibutanethioate] | 0.1 to 1 | – | – | – | – |
| CCCC(=O)SCCOP(=O)(OCCSC(=O)CCC)C(F)(F)c1ccc2sc(C(=O)N[C@H]3CCCC[C@H]4CC[C@@H](C(=O)N5C[C@@H](c6ccn(C7CCN(c8ccc9c(c8)[nH]c(=O)n9C8CCC(=O)NC8=O)CC7)c(=O)c6)CC56CC6)N4C3=O)cc2c1 (stereo partly drawn) [Compound 25, S,S((((2-(((3S,6S,10aS)-3-((6R)-6-(1-(1-(1-(2,6-dioxopiperidin-3-yl)-2-oxo-2,3-dihydro-1H-benzo[d]imidazol-5-yl)piperidin-4-yl)-2-oxo-1,2-dihydropyridin-4-yl)-4-azaspiro[2.4]heptane-4-carbonyl)-5-oxodecahydropyrrolo[1,2-a]azocin-6-yl)carbamoyl)benzo[b]thiophen-5-yl)difluoromethyl)phosphoryl)bis(oxy))bis(ethane-2,1-diyl)) dibutanethioate] | – | 0.1 to 1 | – | – | – |
| CCCC(=O)SCCOP(=O)(OCCSC(=O)CCC)C(F)(F)c1ccc2sc(C(=O)N[C@H]3CCCC[C@H]4CC[C@@H](C(=O)N5C[C@@H](C#N)[C@H](c6cccc(OCCCCCC#Cc7cccc8c7CN(C7CCC(=O)NC7=O)C8=O)c6)C5)N4C3=O)cc2c1 (relative stereo) [Compound 14, S,S(((((2-(((3S,6S,10aS)-3-((rel-3S,4R)-3-cyano-4-(3-((7-(2-(2,6-dioxopiperidin-3-yl)-1-oxoisoindolin-4-yl)hept-6-yn-1-yl)oxy)phenyl)pyrrolidine-1-carbonyl)-5-oxodecahydropyrrolo[1,2-a]azocin-6-yl)carbamoyl)benzo[b]thiophen-5-yl)difluoromethyl)phosphoryl)bis(oxy))bis(ethane-2,1-diyl)) dibutanethioate] | 0.1 to 1 | – | – | – | – |
| CN(CCOc1ccc(C2CCC(=O)NC2=O)cc1)c1ccncc1C1CN(C(=O)[C@@H]2CC[C@@H]3CCC[C@H](NC(=O)c4cc5cc(C(F)(F)P(=O)(O)O)ccc5s4)C(=O)N32)C1 (stereo partly drawn) [Compound 21, ((2-(((3S,6S,9aS)-3-(3-(4-((2-(4-(2,6-dioxopiperidin-3-yl)phenoxy)ethyl)(methyl)amino)pyridin-3-yl)azetidine-1-carbonyl)-5-oxooctahydro-1H-pyrrolo[1,2-a]azepin-6-yl)carbamoyl)benzo[b]thiophen-5-yl)difluoromethyl)phosphonic acid] | – | – | > 3 | 3 to 30 | < 0.1 |
| Cn1c(=O)n(C2CCC(=O)NC2=O)c2ccc(C#CCCC3CCN(c4ccncc4C4CN(C(=O)[C@@H]5CC[C@@H]6CCC[C@H](NC(=O)c7cc8cc(C(F)(F)P(=O)(O)O)ccc8s7)C(=O)N65)C4)CC3)cc21 (stereo partly drawn) [Compound 34, ((2-(((3S,6S,9aS)-3-(3-(4-(4-(4-(1-(2,6-dioxopiperidin-3-yl)-3-methyl-2-oxo-2,3-dihydro-1H-benzo[d]imidazol-5-yl)but-3-yn-1-yl)piperidin-1-yl)pyridin-3-yl)azetidine-1-carbonyl)-5-oxooctahydro-1H-pyrrolo[1,2-a]azepin-6-yl)carbamoyl)benzo[b]thiophen-5-yl)difluoromethyl)phosphonic acid] | – | – | 0.1 to 1 | 0.3 to 3 | < 0.1 |
